Non-standard residues stand in square brackets, D forms with d. Residues, ends and D or L forms follow the SMILES beside them. Oic = O=C(O)[C@@H]1C[C@@H]2CCCC[C@@H]2N1; d2Nal = N[C@H](Cc1ccc2ccccc2c1)C(=O)O; Hyp = O=C(O)[C@@H]1C[C@@H](O)CN1; dTic = O=C(O)[C@H]1Cc2ccccc2CN1; 2Thi = N[C@@H](Cc1cccs1)C(=O)O
Assays:
[1] = target: T1, human B1 receptor (Homo sapiens, UniProt P46663); test: cell-based; settings: Human umbilical vein B1 receptor pA2, vs desArg9BK, HOE140 400 nmol/L present
T1 sequence (P46663 1-353): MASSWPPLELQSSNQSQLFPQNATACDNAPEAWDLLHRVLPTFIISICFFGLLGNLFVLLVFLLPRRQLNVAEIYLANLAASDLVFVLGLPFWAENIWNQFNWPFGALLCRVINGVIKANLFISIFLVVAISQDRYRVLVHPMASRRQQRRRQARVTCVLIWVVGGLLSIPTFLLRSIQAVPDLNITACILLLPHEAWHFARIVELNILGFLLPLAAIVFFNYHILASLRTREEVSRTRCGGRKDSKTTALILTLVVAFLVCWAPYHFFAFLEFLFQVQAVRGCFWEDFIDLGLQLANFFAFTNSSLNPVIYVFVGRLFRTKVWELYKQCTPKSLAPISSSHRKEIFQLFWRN
Excerpt: (§1) Tissues were taken from New Zealand white rabbits (1.5–2.5 kg) and Dunken Hartley guinea pigs (250–350 g) of either sex, killed by stunning and exsanguination. Umbilical cords were taken from healthy women 22–40 years old after spontaneous delivery at term. The rabbit jugular vein (RbJV), the guinea pig ileum (GPI), two preparations containing B2 receptors, the rabbit aorta (RbA) (B1 receptor) and the human umbilical vein (HUV), a mixed preparation containing both B1 and B2 receptors^10, were used. Helical strips of RbJV treated with 1 μmol/L of captopril to avoid peptide degradation by the angiotensin-converting enzyme (ACE), alias kininase II were prepared according to Gaudreau et al.^11 Helical strips of RbA devoid of endothelium were prepared according to Furchgott and Bhadrakom^12. Longitudinal segments of GPI were prepared with the procedure described by Rang^13. Helical strips of HUV were prepared according to Gobeil et al.^10. The tissues were suspended in 10-ml organ baths containing warm (37EC), oxygenated (95% O2–5% CO2) Krebs solution of the following composition in mmol/L; NaCl: 118.1; KCl: 4.7; CaCl26H2O: 2.5; KH2PO4: 1.2; MgSO47H2O: 1.18; NaHCO3: 25.0 and D-Glucose: 5.5. The RbA and the HUV were stretched with an initial tension of 2 g, whereas the RbJV and the GPI were loaded with 0.5 g. Changes of tension produced by the various agents were measured with Grass isometric transducers (model FT 03C, Grass Instrument Co., Quincy, Mass.). […] Before testing the drugs, the tissues were allowed to equilibrate for 60–120 min during which time the tissues were repeatedly washed and the tension readjusted every 15 min.
(§2) At the beginning of each experiment, a submaximal dose of bradykinin (BK) (9 nmol/L), was applied repeatedly on the RbJV, the GPI or the HUV to ensure that tissues responded with stable contractions. […] A similar protocol was used for the HUV.
(§3) Repeated applications of a singl and double concentration of BK (on RbJV, GPI and HUV) and of desArg^9BK (RbA and HUV) were made in the absence and in presence of the various peptides to evaluate their apparent affinities as antagonists, in terms of pA2 (-log10 of the molar concentration of antagonist that reduces the effect of a double concentration of agonist to that of a single one)^14. The antagonists were applied 10 min before measuring the myotropic effects of either BK (the B2 receptor agonist) or desArg^9BK (the B1 receptor agonist). […] All kinin antagonists were initially applied to tissues at concentration of 10 μg/mL to measure their potential agonistic activities (α^E) in comparison with BK (in the B2 receptor preparations) or desArg^9BK (in the B1 receptor preparations).

[2] = target: T2, B1 receptor (Oryctolagus cuniculus, UniProt P48748); test: cell-based; settings: Rb.A. pA2, apparent affinity as antagonist vs desArg9BK; antagonist applied 10 min before; Inactive = no detectable antagonistic effect at ≦ 10 μg/ml
T2 sequence (P48748 1-352): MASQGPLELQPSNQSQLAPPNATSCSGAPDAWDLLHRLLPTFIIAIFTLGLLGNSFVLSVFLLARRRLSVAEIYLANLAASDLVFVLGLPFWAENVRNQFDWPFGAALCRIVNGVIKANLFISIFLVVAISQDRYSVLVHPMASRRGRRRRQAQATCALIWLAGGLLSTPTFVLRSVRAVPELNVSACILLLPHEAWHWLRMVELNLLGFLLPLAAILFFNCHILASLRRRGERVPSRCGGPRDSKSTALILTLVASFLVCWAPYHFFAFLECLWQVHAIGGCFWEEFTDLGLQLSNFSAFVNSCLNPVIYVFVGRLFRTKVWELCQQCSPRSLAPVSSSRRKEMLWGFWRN
Excerpt: as §1, §2, §3

[3] = target: T3, B2 receptor (Cavia porcellus, UniProt O70526); test: cell-based; settings: for G.P.I. pA2: vs BK, Inactive = no detectable antagonistic effect at ≦ 10 μg/ml, F.ag. full agonist, P.ag. partial agonist
T3 sequence (O70526 1-372): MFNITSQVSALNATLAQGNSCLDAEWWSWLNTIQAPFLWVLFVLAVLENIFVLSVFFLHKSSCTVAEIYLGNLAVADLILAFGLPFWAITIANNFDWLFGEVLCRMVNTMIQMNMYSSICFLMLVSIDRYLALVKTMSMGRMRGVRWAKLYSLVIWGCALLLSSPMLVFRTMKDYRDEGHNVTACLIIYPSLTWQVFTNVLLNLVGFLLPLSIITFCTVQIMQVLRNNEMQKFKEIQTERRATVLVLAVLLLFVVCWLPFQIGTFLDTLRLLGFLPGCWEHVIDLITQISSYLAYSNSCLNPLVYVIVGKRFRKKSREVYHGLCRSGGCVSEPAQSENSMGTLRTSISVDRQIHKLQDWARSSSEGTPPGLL
Excerpt: as §1, §2, §3

[4] = tested on: T4, angiotensin-converting enzyme (ACE); test: Metabolic degradation by purified angiotensin-converting enzyme, HPLC analysis; assay type: in vitro ADME, rabbit; settings: rabbit, isolated enzyme ace, pH 7.5
T4 construct: purified angiotensin-converting enzyme (ACE) from rabbit lungs; purchased Sigma, St-Louis, Mo; host or cells: purified from rabbit lungs
Protocol: The metabolic stability of various kinin-related peptides was evaluated by incubating the peptide in the presence of purified angiotensin-converting enzyme (ACE) from rabbit lungs (purchased from Sigma, St-Louis, Mo.) dissolved in phosphate buffered saline (PBS) (50 mmol/L, pH 7.5 containing 300 mmoL/L NaCl); the final concentration of enzyme was 45 μg/mL. The experimental protocol for the measurement of ACE activity has been described elsewhere^15,16. Briefly, 200 μmol/L of peptides (40 μL) were placed in a PBS buffer and incubated for 5 min at 37EC before adding 8.5 μL of ACE (total volume of the reaction medium; 190 μL). Samples were withdrawn at 30 min intervals, immersed in boiling water for 5 min, then cooled on ice and centrifuged (5 min) before proceeding to analysis of peptides by high pressure liquid chromatography (HPLC). Results of ACE metabolism are expressed in percent of kinin degradation following the incubation (30 min) of kinin substrates with the enzyme.
Pure peptides and metabolic products were analysed by reverse-phas HPLC on a C18 μBondapak column (4.6 mm×25 cm) (Waters) of 10-μm particle size. The peptides and their fragments were eluted at the rate of 2.0 mL/min. with a linear gradient ranging from 5 to 65% of acetonitrile/TFA 0.05%/water over 20 min. at room temperature. The elution positions of these peptides were determined by following the absorbance at 214 nm. For each assay, 50 μL of the reaction medium (treated or not with ACE) were extracted and injected into the column. Concentrations of the peaks products, different from the peaks of the peptide substrate, were estimated using a computer software program (Baseline 810; Waters) that controlled also all the chromatography operations. Isolated metabolites and substrates were collected and identified by Electrospray mass spectrometry (positive mode).

[5] = target: T5, B2 receptor (Oryctolagus cuniculus, UniProt Q28642); settings: vs BK; captopril 1 μmol/L; Inactive = no detectable antagonistic effect at ≦ 10 μg/ml
T5 sequence (Q28642 1-367): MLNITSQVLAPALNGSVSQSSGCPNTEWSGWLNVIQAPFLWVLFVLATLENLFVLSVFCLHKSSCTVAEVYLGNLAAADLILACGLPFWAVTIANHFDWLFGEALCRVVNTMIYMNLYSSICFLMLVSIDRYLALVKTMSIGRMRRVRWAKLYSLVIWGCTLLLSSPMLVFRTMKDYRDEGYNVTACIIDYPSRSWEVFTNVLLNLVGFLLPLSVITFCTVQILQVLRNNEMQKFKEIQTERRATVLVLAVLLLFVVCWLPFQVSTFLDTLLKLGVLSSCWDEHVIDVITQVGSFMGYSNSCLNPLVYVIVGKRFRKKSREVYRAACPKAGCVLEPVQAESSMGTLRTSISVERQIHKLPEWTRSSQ

[6] = target: T5, B2 receptor; test: cell-based
Excerpt: as §1, §2, §3

Row | SMILES | Kb [1] [nM] | Kb [2] [nM] | G.P.I. pA2 [3] | metabolised at 0.5 h, 42.1 μmol/L [4] [%] | Rb.J.V. pA2 [5] | Kb [3] [nM] | Kb [6] [nM] | metabolised at 0.5 h [4] [%]
1 | CC[C@H](C)[C@H](NC(=O)[C@@H](Cc1ccc2ccccc2c1)NC(=O)[C@H](CO)NC(=O)[C@H](Cc1ccccc1)NC(=O)CNC(=O)[C@@H]1CCCN1C(=O)[C@@H]1CCCN1C(=O)[C@H](CCCN=C(N)N)NC(=O)[C@H](CCCCN)NC(C)=O)C(=O)O [AcLys(D-βNal^7, Ile^8)desArg^9BK] (Ac-KRPPGFS[d2Nal]I-OH) | 3.24 |  |  |  |  |  |  | 
2 | CC(C)C[C@H](NC(=O)[C@@H]1CCCN1C(=O)[C@H](CO)NC(=O)[C@H](Cc1ccccc1)NC(=O)CNC(=O)[C@@H]1CCCN1C(=O)[C@@H]1CCCN1C(=O)[C@@H](N)CCCNC(=N)N)C(=O)O [Compound 1, (Leu^8)desArg^9BK, reference compound] |  | 57.5 | Inactive | 83 ± 2 | Inactive |  |  | 
3 | CC(C)C[C@H](NC(=O)[C@@H]1CCCN1C(=O)[C@H](CO)NC(=O)[C@H](Cc1ccccc1)NC(=O)CNC(=O)[C@@H]1CCCN1C(=O)[C@@H]1CCCN1C(=O)[C@H](CCCNC(=N)N)NC(=O)[C@@H](N)CCCCN)C(=O)O [Compound 2, Lys(Leu^8)desArg^9BK, reference compound] |  |  | Inactive | 74 ± 2 | Inactive |  |  | 
4 | N=C(N)NCCC[C@@H](N)C(=O)N[C@@H](CCCNC(=N)N)C(=O)N1CCC[C@H]1C(=O)N1C[C@H](O)C[C@H]1C(=O)NCC(=O)N[C@@H](Cc1ccccc1)C(=O)N[C@@H](CO)C(=O)N[C@H](Cc1ccccc1)C(=O)N[C@@H](Cc1ccccc1)C(=O)O [Compound 6, D-Arg(Hyp^3, D-Phe^7)desArg^9BK] (H-[dR]RP[Hyp]GFS[dF]F-OH; N-terminus and C-terminus assumed) |  | 363 |  |  |  | > 8910 | 2340 | 
5 | CC(C)C[C@H](NC(=O)[C@@H](Cc1ccccc1)NC(=O)[C@H](CO)NC(=O)[C@H](Cc1ccccc1)NC(=O)CNC(=O)[C@@H]1C[C@@H](O)CN1C(=O)[C@@H]1CCCN1C(=O)[C@H](CCCNC(=N)N)NC(=O)[C@H](N)CCCNC(=N)N)C(=O)O [Compound 7, D-Arg(Hyp^3, D-Phe^7, Leu^8)desArg^9BK] (H-[dR]RP[Hyp]GFS[dF]L-OH; N-terminus and C-terminus assumed) |  | 275 | Inactive |  |  |  | 2090 | 
6 | CC(C)C[C@H](NC(=O)[C@H]1Cc2ccccc2CN1C(=O)[C@H](CO)NC(=O)[C@H](Cc1ccccc1)NC(=O)CNC(=O)[C@@H]1CCCN1C(=O)[C@@H]1CCCN1C(=O)[C@H](CCCNC(=N)N)NC(=O)[C@@H](N)CCCCN)C(=O)O [Compound 10, Lys(D-Tic^7, Leu^8)desArg^9BK] (H-KRPPGFS[dTic]L-OH; N-terminus and C-terminus assumed) |  | 316 |  |  |  |  | > 6310 | 
7 | C[C@H](NC(=O)[C@H]1Cc2ccccc2CN1C(=O)[C@H](CO)NC(=O)[C@H](Cc1ccccc1)NC(=O)CNC(=O)[C@@H]1CCCN1C(=O)[C@@H]1CCCN1C(=O)[C@H](CCCNC(=N)N)NC(=O)[C@H](N)CCCNC(=N)N)C(=O)O [Compound 15, D-Arg(D-Tic^7, Ala^8)desArg^9BK] (H-[dR]RPPGFS[dTic]A-OH; N-terminus and C-terminus assumed) |  | > 9550 |  |  | Inactive |  |  | 21 ± 1
8 | N=C(N)NCCC[C@@H](N)C(=O)N[C@@H](CCCNC(=N)N)C(=O)N1CCC[C@H]1C(=O)N1C[C@H](O)C[C@H]1C(=O)NCC(=O)N[C@@H](Cc1ccccc1)C(=O)N[C@@H](CO)C(=O)N1Cc2ccccc2C[C@@H]1C(=O)N[C@@H](Cc1ccccc1)C(=O)O [Compound 16, D-Arg(Hyp^3, D-Tic^7)desArg^9BK] (H-[dR]RP[Hyp]GFS[dTic]F-OH; N-terminus and C-terminus assumed) |  | 186 |  |  |  |  | > 2190 | 0
9 | N=C(N)NCCC[C@H](N)C(=O)N1CCC[C@H]1C(=O)N1C[C@H](O)C[C@H]1C(=O)NCC(=O)N[C@@H](Cc1cccs1)C(=O)N[C@@H](CO)C(=O)N1Cc2ccccc2C[C@@H]1C(=O)N1[C@H](C(=O)O)C[C@@H]2CCCC[C@@H]21 [Compound 32, (Hyp^3, Thi^5, D-Tic^7, Oic^8)desArg^9BK, reference compound] (H-RP[Hyp]G[2Thi]S[dTic][Oic]-OH; N-terminus and C-terminus assumed) |  | 479 |  |  |  | > 7590 | 447 | 0

— patent US7041785B1, “B1-bradykinin receptor antagonists and use thereof” (Université de Sherbrooke, priority 1996, dated 2006)
